Reference: the NIST ThermoML archive (doi:10.1021/je050462y)
Numbers after ± are expanded uncertainties.

Assays:
[1] = 101.33 kPa, Liquid
[2] = wn = mass fraction of the nth substance listed; conditions: 101 kPa, Liquid; for viscosity: Capillary tube (Ostwald / Ubbelohde) method, w1 = 0.5; for mass density: w1 = 0.3

| mass density ([1]; 313.15 K) [kg/m3] | mass density ([1]; 323.15 K) [kg/m3] | mass density ([1]; 333.15 K) [kg/m3] | Compound | viscosity ([2]; 303.15 K) [mPa·s] | viscosity ([2]; 313.15 K) [mPa·s] | mass density ([2]; 313.15 K) [kg/m3] | viscosity ([2]; 323.15 K) [mPa·s] | mass density ([2]; 323.15 K) [kg/m3] | viscosity ([2]; 333.15 K) [mPa·s] | mass density ([2]; 333.15 K) [kg/m3] |
| --- | --- | --- | --- | --- | --- | --- | --- | --- | --- | --- |
| 917.2 ± 0.6 | 909.2 ± 0.6 | 900.7 ± 0.6 | CC(C)(N)CO [2-amino-2-methylpropan-1-ol] |  |  |  |  |  |  |  |
| 1084.7 ± 0.3 | 1077.4 ± 0.3 | 1070.3 ± 0.3 | OCCNCCO [diethanolamine] |  |  |  |  |  |  |  |
|  |  |  | CN(CCO)CCO [N-methyldiethanolamine] + O | 7.39 ± 0.07 | 5.08 ± 0.05 | 1017.1 ± 0.6 | 3.62 ± 0.03 | 1011.5 ± 0.6 | 2.72 ± 0.03 | 1004.1 ± 0.6 |
|  |  |  | OCCNCCO [diethanolamine] + O |  |  | 1026 ± 0.5 |  | 1021.3 ± 0.5 |  | 1014.4 ± 0.4 |

| Compound | mass density ([1]; 313.15 K) [kg/m3] | mass density ([1]; 323.15 K) [kg/m3] | mass density ([1]; 333.15 K) [kg/m3] | viscosity ([2]; 303.15 K) [mPa·s] | viscosity ([2]; 313.15 K) [mPa·s] | mass density ([2]; 313.15 K) [kg/m3] | viscosity ([2]; 323.15 K) [mPa·s] | mass density ([2]; 323.15 K) [kg/m3] | viscosity ([2]; 333.15 K) [mPa·s] | mass density ([2]; 333.15 K) [kg/m3] |
| --- | --- | --- | --- | --- | --- | --- | --- | --- | --- | --- |
| CN(CCO)CCO [N-methyldiethanolamine] | 1025 ± 0.6 | 1017.4 ± 0.6 | 1009.6 ± 0.6 |  |  |  |  |  |  |  |
